Test results: US10213433B2 (AbbVie Inc., priority 2010, dated 2019)

Each molecule was assayed against Bcl-2 protein (Homo sapiens (Human), UniProt P10415) (assay: Bcl-2 binding TR-FRET (Time-Resolved Fluorescence-Resonance-Energy-Transfer) assay). Conditions: inhibition constant for binding to Bcl-2 protein.
Sequence of Bcl-2 protein (P10415 whole entry): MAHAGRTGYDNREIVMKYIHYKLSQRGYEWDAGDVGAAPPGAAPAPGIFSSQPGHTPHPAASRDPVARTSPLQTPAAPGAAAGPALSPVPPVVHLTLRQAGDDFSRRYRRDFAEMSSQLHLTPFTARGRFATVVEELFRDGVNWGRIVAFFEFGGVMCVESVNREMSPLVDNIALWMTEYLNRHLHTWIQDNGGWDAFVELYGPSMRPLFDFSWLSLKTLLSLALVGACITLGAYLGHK
Text: The smaller the Ki value, the greater is the binding affinity.
For `O=C(NS(=O)(=O)c1ccc(NCCCN2CCOCC2)c([N+](=O)[O-])c1)c1ccc(N2CCN(Cc3ccccc3-c3ccc(Cl)cc3)CC2)cc1Oc1cnc2[nH]ccc2c1` [Compound 2, 4-{4-[(4′-chloro-1,1′-biphenyl-2-yl)methyl]piperazin-1-yl}-N-({4-[(3-morpholin-4-ylpropyl)amino]-3-nitrophenyl}sulfonyl)-2-(1H-pyrrolo[2,3-b]pyridin-5-yloxy)benzamide], the Ki was < 0.01 nM. In the case of `CN1CCC(Nc2ccc(S(=O)(=O)NC(=O)c3ccc(N4CCN(CC5=C(c6ccc(Cl)cc6)CC(C)(C)CC5)CC4)cc3Oc3cnc4[nH]ccc4c3)cc2[N+](=O)[O-])CC1` [Compound 4, 4-(4-{[2-(4-chlorophenyl)-4,4-dimethylcyclohex-1-en-1-yl]methyl}piperazin-1-yl)-N-({4-[(1-methylpiperidin-4-yl)amino]-3-nitrophenyl}sulfonyl)-2-(1H-pyrrolo[2,3-b]pyridin-5-yloxy)benzamide], the Ki is reported as < 0.01 nM. For `COCCNc1ccc(S(=O)(=O)NC(=O)c2ccc(N3CCN(CC4=C(c5ccc(Cl)cc5)CC(C)(C)CC4)CC3)cc2Oc2cnc3[nH]ccc3c2)cc1[N+](=O)[O-]` [Compound 10, 4-(4-{[2-(4-chlorophenyl)-4,4-dimethylcyclohex-1-en-1-yl]methyl}piperazin-1-yl)-N-({4-[(2-methoxyethyl)amino]-3-nitrophenyl}sulfonyl)-2-(1H-pyrrolo[2,3-b]pyridin-5-yloxy)benzamide], the Ki was < 0.01 nM. With `CC1(C)CCC(CN2CCN(c3ccc(C(=O)NS(=O)(=O)c4ccc(NC[C@H]5CCCOC5)c([N+](=O)[O-])c4)c(Oc4cnc5[nH]ccc5c4)c3)CC2)=C(c2ccc(Cl)cc2)C1` [Compound 13, 4-(4-{[2-(4-chlorophenyl)-4,4-dimethylcyclohex-1-en-1-yl]methyl}piperazin-1-yl)-N-[(3-nitro-4-{[(3R)-tetrahydro-2H-pyran-3-ylmethyl]amino}phenyl)sulfonyl]-2-(1H-pyrrolo[2,3-b]pyridin-5-yloxy)benzamide] the Ki was < 0.01 nM. With `CC1(C)CC(c2ccc(Cl)cc2)=C(CN2CCN(c3ccc(C(=O)NS(=O)(=O)c4ccc(NCC5CCOCC5)c([N+](=O)[O-])c4)c(Oc4cnc5[nH]ccc5c4)c3)CC2)CO1` [Compound 15, 4-(4-{[4-(4-chlorophenyl)-6,6-dimethyl-5,6-dihydro-2H-pyran-3-yl]methyl}piperazin-1-yl)-N-({3-nitro-4-[(tetrahydro-2H-pyran-4-ylmethyl)amino]phenyl}sulfonyl)-2-(1H-pyrrolo[2,3-b]pyridin-5-yloxy)benzamide] the Ki was < 0.01 nM. For `CC1(C)CCC(CN2CCN(c3ccc(C(=O)NS(=O)(=O)c4ccc(NCC5COCCO5)c([N+](=O)[O-])c4)c(Oc4cnc5[nH]ccc5c4)c3)CC2)=C(c2ccc(Cl)cc2)C1` (centres unmarked) [Compound 25, 4-(4-{[2-(4-chlorophenyl)-4,4-dimethylcyclohex-1-en-1-yl]methyl}piperazin-1-yl)-N-({4-[(1,4-dioxan-2-ylmethyl)amino]-3-nitrophenyl}sulfonyl)-2-(1H-pyrrolo[2,3-b]pyridin-5-yloxy)benzamide], the Ki was < 0.01 nM. For `CC1(C)CCC(CN2CCN(c3ccc(C(=O)NS(=O)(=O)c4ccc(OC[C@@H]5COCCO5)c([N+](=O)[O-])c4)c(Oc4cnc5[nH]ccc5c4)c3)CC2)=C(c2ccc(Cl)cc2)C1` [Compound 28, 4-(4-{[2-(4-chlorophenyl)-4,4-dimethylcyclohex-1-en-1-yl]methyl}piperazin-1-yl)-N-({4-[(2S)-1,4-dioxan-2-ylmethoxy]-3-nitrophenyl}sulfonyl)-2-(1H-pyrrolo[2,3-b]pyridin-5-yloxy)benzamide], the Ki was < 0.01 nM. `CC1(C)CCC(CN2CCN(c3ccc(C(=O)NS(=O)(=O)c4ccc(OC[C@H]5COCCO5)c([N+](=O)[O-])c4)c(Oc4cnc5[nH]ccc5c4)c3)CC2)=C(c2ccc(Cl)cc2)C1` [Compound 30, 4-(4-{[2-(4-chlorophenyl)-4,4-dimethylcyclohex-1-en-1-yl]methyl}piperazin-1-yl)-N-({4-[(2R)-1,4-dioxan-2-ylmethoxy]-3-nitrophenyl}sulfonyl)-2-(1H-pyrrolo[2,3-b]pyridin-5-yloxy)benzamide] was tested, and the Ki was < 0.01 nM. For `CC1(C)CC(c2ccc(Cl)cc2)=C(CN2CCN(c3ccc(C(=O)NS(=O)(=O)c4ccc(NCC5COCCO5)c([N+](=O)[O-])c4)c(Oc4cnc5[nH]ccc5c4)c3)CC2)CO1` (centres unmarked) [Compound 31, 4-(4-{[4-(4-chlorophenyl)-6,6-dimethyl-5,6-dihydro-2H-pyran-3-yl]methyl}piperazin-1-yl)-N-({4-[(1,4-dioxan-2-ylmethyl)amino]-3-nitrophenyl}sulfonyl)-2-(1H-pyrrolo[2,3-b]pyridin-5-yloxy)benzamide], the Ki was < 0.01 nM. With `CC1(C)CC(c2ccc(Cl)cc2)=C(CN2CCN(c3ccc(C(=O)NS(=O)(=O)c4ccc(OCC5COCCO5)c([N+](=O)[O-])c4)c(Oc4cnc5[nH]ccc5c4)c3)CC2)CO1` (centres unmarked) [Compound 32, 4-(4-{[4-(4-chlorophenyl)-6,6-dimethyl-5,6-dihydro-2H-pyran-3-yl]methyl}piperazin-1-yl)-N-{[4-(1,4-dioxan-2-ylmethoxy)-3-nitrophenyl]sulfonyl}-2-(1H-pyrrolo[2,3-b]pyridin-5-yloxy)benzamide] the Ki was < 0.01 nM. `CC1(C)CC(c2ccc(Cl)cc2)=C(CN2CCN(c3ccc(C(=O)NS(=O)(=O)c4cnc(OCC5CCOCC5)c(C#N)c4)c(Oc4cnc5[nH]ccc5c4)c3)CC2)CO1` [Compound 35, 4-(4-{[4-(4-chlorophenyl)-6,6-dimethyl-5,6-dihydro-2H-pyran-3-yl]methyl}piperazin-1-yl)-N-{[5-cyano-6-(tetrahydro-2H-pyran-4-ylmethoxy)pyridin-3-yl]sulfonyl}-2-(1H-pyrrolo[2,3-b]pyridin-5-yloxy)benzamide] was tested, and the Ki was < 0.01 nM. For `CC1(C)CCC(CN2CCN(c3ccc(C(=O)NS(=O)(=O)c4cnc(OCC5CCOCC5)c(Cl)c4)c(Oc4cnc5[nH]ccc5c4)c3)CC2)=C(c2ccc(Cl)cc2)C1` [Compound 40, 4-(4-{[2-(4-chlorophenyl)-4,4-dimethylcyclohex-1-en-1-yl]methyl}piperazin-1-yl)-N-{[5-chloro-6-(tetrahydro-2H-pyran-4-ylmethoxy)pyridin-3-yl]sulfonyl}-2-(1H-pyrrolo[2,3-b]pyridin-5-yloxy)benzamide], the Ki was < 0.01 nM. In the case of `CC1(C)CC(c2ccc(Cl)cc2)=C(CN2CCN(c3ccc(C(=O)NS(=O)(=O)c4cnc(OCC5CCOCC5)c(Cl)c4)c(Oc4cnc5[nH]ccc5c4)c3)CC2)CO1` [Compound 41, 4-(4-{[4-(4-chlorophenyl)-6,6-dimethyl-5,6-dihydro-2H-pyran-3-yl]methyl}piperazin-1-yl)-N-{[5-chloro-6-(tetrahydro-2H-pyran-4-ylmethoxy)pyridin-3-yl]sulfonyl}-2-(1H-pyrrolo[2,3-b]pyridin-5-yloxy)benzamide], the Ki is reported as < 0.01 nM. In the case of `CN1CCC(Nc2ccc(S(=O)(=O)NC(=O)c3ccc(N4CCN(CC5=C(c6ccc(Cl)cc6)CC(C)(C)OC5)CC4)cc3Oc3cnc4[nH]ccc4c3)cc2S(=O)(=O)C(F)(F)F)CC1` [Compound 45, 4-(4-{[4-(4-chlorophenyl)-6,6-dimethyl-5,6-dihydro-2H-pyran-3-yl]methyl}piperazin-1-yl)-N-({4-[(1-methylpiperidin-4-yl)amino]-3-[(trifluoromethyl)sulfonyl]phenyl}sulfonyl)-2-(1H-pyrrolo[2,3-b]pyridin-5-yloxy)benzamide], the Ki is reported as < 0.01 nM.
